This passage reports Ki results from ChEMBL document CHEMBL1135457 (J Med Chem, 2002).

The target of the assay is T1, Estrogen receptor (Homo sapiens, UniProt P03372).
T1 sequence (P03372 whole entry): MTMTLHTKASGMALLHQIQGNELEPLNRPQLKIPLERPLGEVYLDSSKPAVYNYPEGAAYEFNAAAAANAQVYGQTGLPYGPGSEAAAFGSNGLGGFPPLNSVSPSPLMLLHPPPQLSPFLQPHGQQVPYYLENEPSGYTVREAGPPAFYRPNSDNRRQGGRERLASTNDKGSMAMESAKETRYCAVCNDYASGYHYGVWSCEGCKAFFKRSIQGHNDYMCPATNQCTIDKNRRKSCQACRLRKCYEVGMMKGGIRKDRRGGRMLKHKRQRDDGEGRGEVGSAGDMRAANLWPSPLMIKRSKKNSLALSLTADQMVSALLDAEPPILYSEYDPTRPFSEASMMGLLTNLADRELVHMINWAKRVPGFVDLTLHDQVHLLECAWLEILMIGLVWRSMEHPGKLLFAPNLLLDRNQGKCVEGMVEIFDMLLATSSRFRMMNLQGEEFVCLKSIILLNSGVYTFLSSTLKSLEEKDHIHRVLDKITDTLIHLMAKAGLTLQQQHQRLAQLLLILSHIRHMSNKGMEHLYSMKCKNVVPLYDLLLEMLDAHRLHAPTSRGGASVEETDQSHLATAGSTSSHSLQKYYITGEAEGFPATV
The assay is described as follows: Displacement of radioligand from human Estrogen receptor alpha.

A value given as a limit tells only on which side of the number the result lay.

In the case of `CC#C[C@]1(O)CCC2C3CCC4=CC(=O)CC[C@]4(Cc4ccc(C)cc4)C3=CC[C@@]21C` (stereo partly specified), the Ki (as a rule, the equilibrium dissociation constant of an inhibitor or competing ligand from its target) was greater than 10 µM.
